Measured values taken from patent publication US20070232594A1, “Aromatic amide derivatives, medicinal compositions containing the same, medical uses of both” (priority 2004, published 2007).

Assays:
human V2 receptor [1] = target: T1, human V2 receptor (Homo sapiens, UniProt P30518); assay: Study to confirm the agonism of human V2 receptor (intracellular Ca2+, HEK293 cells coexpressing human V2 receptor and Gqs chimeric protein); format: cell-based; design: expressed in transfected cells; host or cells: HEK293 cells (American Type Culture Collection), transient transfection with pCI-neo/hV2 and pLEC-Gqs5; conditions: for EC50: intracellular Ca2+, HEK293 cells coexpressing human V2 receptor and Gqs; for IA (intrinsic activity): maximum response relative to AVP = 1
Experimental: The Study to Confirm the Agonism of Human V2 Receptor
The experiment to confirm the response of the test compounds to human V2 receptor was carried out using the cells prepared as described below in order to use this confirmation study to see the agonism of human V2 receptor of the test compounds.
The test compounds were dissolved in dimethylsulfoxide at 10 mM and solutions of the test compounds were prepared by 10-fold serial dilution with the Assay buffer (0.1% BSA, 20 mM HEPES/Hank's balanced salt solution, pH 7.4) at the concentration of 0.1 nM to 10 μM, which were used in this study.
Human V2 receptor couples with Gs protein, one of the G-coupling protein, and consequently produces cyclic adenosine 3′, 5′-monophosphate (cAMP) via adenylate cyclase. This cAMP produce can be substituted to intracellular increase of Ca^2+ with coexpressing Gqs, a chimeric protein, and human V2 receptor (Mol. Pharmacol., Vol. 50, pp. 885-890, 1996). The responses of the test compounds for human V2 receptor were quantified by measuring this intracellular Ca^2+. The changes of intracellular Ca^2+ after adding the test compounds at each concentration as mentioned above (0.1 nM to 10 μM) were measured with a FlexStation (Molecular Devices) using a FLIPR CALCIUM ASSAY KIT (Molecular Devices).
The intrinsic activities (IA) of the test compounds were calculated from the maximum response of the test compounds as that of AVP was considered to be 1. In case of a full agonist, the EC50 values of the test compounds were calculated as the maximum response of AVP was considered to be 100% and in the case of a partial agonist, EC50 values of test compounds were calculated as the maximum response of own test compounds were considered to be 100%. The concentration that achieved to 50% response of the maximum response in a concentration-response curve was considered as EC50 value. The values of EC50 obtained in this study were shown in Table 68 described below as indications of the agonism of human V2 receptor.
The Preparation of the Cells Using Confirmation Study of an Agonism of Human V2, Receptor (HEK293 Cells Coexpressed Human V2 Receptor and Gqs Chimeric Protein)
HEK293 cells (American Type Culture Collection) were incubated in the Eagle's Minimum Essential Medium (EMEM, Invitrogen) containing 1 mM sodium pyruvate, nonessential amino acids (0.1 mM), streptomycin (100 μg/mL), penicillin (100 U/mL), 10% fetal calf serum (Sanko chemicals) in an incubator with 5% CO2 at 37° C. The transfection was carried out by adding pCI-neo hV2 expression vector, expression vector inserted with the sequence coding Gqs chimeric protein (pLEC-Gqs5, LiveWare, Molecular Devices) and Lipofectamine2000 (Invitrogen), all diluted with OPTI-MEM I Reduced Serum Medium I (Invitrogen), to the cell suspension which was prepared from the confluent cells suspended with EMEM as mentioned above without antibiotics at 1×10^6 cells/mL. After the transfection, the cells (HEK293 cells coexpressed human V2 receptor and Gqs chimeric protein) were incubated in an incubator with 5% CO2 for two days and were used as cells for confirming agonism of human V2 receptor, and used for assessment of the test compounds. The expression plasmid vector of human V2 receptor represented as pCI-neo/hV2 above was constructed by the method as described below.
The Method of Construction of Human V2 Receptor Expression Plasmid Vector
cDNA library was obtained from reverse transcription of human kidney total RNA using SuperScript II RNase H-reverse transcriptase (Invitrogen) and oligo dT. The DNA fragment encoding human V2 receptor was amplified by the PCR method using the cDNA library as a template, primers used in combination of each forward primer (sequence no. 1-3 shown below) and each reverse primer (sequence no. 4-6 shown below) respectively and pfu DNA polymerase (Stratagene). This amplified DNA fragment and pCR-blunt kit (Invitrogen), a cloning plasmid vector, were ligated by a general method of the kit. […]

human V2 receptor [2] = target: T1, human V2 receptor; assay: Binding experiment for human V2 receptor ([3H]-AVP displacement, CHO cell membranes); design: purchased Packard BioScience; host or cells: CHO cells (membranes); conditions: [3H]-AVP binding, CHO cell membranes expressing human V2 receptor; Ki calculated from IC50 and Kd
Experimental: Binding Experiment for Human V2 Receptor
Test compounds were dissolved in dimethylsulfoxide at 10 mM. The affinities for human V2 receptor were determined by an inhibition against [^3H]-Arginie vasopressin (AVP) (Perkin elmer Japan) binding to the human V2 receptor using CHO cell membranes expressed human V2 receptor (Packard BioScience). Cell membranes suspension was prepared by suspending the cell membranes as mentioned above with Assay buffer (50 mM Tris-HCl, 10 mM MgCl2, 0.1% bovine serum albumin (BSA), pH7.4) at an adequate protein concentration. The test compound solutions were prepared by diluting the dimethylsulfoxide solution of the test compound as mentioned above with Assay buffer at final concentration of 10 nM, 100 nM, 1 μM and 10 μM (in this diluting procedure, concentration of dimethylsulfoxide was adjusted to be 0.5% at each concentration of the test compound). Cell membranes suspension (50 μL), 3 nM of [^3H]-AVP (50 μL), Assay buffer (50 μL) and the solution of the test compounds at each concentrations (50 μL) were added to MultiScreen 96-well plate (Millipore) and the mixture was incubated for an hour at 25° C. with shaking slightly. After filtration by aspiration, the plate was washed with ice-cold washing buffer (50 mM Tris-HCl, 10 mM MgCl2, pH 7.4) for three times. After dry the plate, Microscinti-20 (Packard) was added to each well and the plate was shaken slightly, and then radioactivities of each well were counted with a micro plate scintillation counter, TopCount (Packard). Non-specific binding of [^3H]-AVP for cell membranes was determined by adding 1 μM of cold AVP substituted for the test compounds. The concentration of the test compounds inhibiting the specific binding of [^3H]-AVP by 50% was considered as IC50 value.
The Calculation of Kd Value of [^3H]-AVP for the Cell Membranes Expressed Human V2 Receptor
The suspension of the cell membranes expressed human V2 receptor was prepared with diluting adequately with the Assay buffer as mentioned above. In consideration for the radioactivity of [^3H]-AVP, six different concentrations (final concentration; ranging from approximately 100 pM to 6000 pM) of [^3H]-AVP were prepared by serial dilution by from 2 to 3 fold with the Assay buffer. The cell membranes suspension (50 μL), each concentrations of [^3H]-AVP (50 μL), the Assay buffer (50 μL) and 1 μM of cold AVP or the Assay buffer were added to MultiScreen 96-well plate (Millipore) and the mixture was incubated for an hour at 25° C. with shaking slightly. The specific bindings (Bvalue) of each concentrations of the [^3H]-AVP were determined by the method as mentioned above and free-bound contents (F value) at each concentrations of the [^3H]-AVP were determined. The Kd value was calculated by Scatchard analysis using the B value and the F value.

Male SD rats = assay: Acute toxicity test; format: in vivo, rat; conditions: 3 mg/kg intravenously, N=3, one hour observation, urethane anesthesia
Experimental: Male SD rats (250-300 g weight) were divided into some groups (N=3) and each cannula was inserted into trachea and jugular vein under anesthesia with urethane (1.5 g/kg, subcutaneously). The test compound solutions were prepared with an adequate solvent to be a dosage of 3 mg/kg, and then the solution was administered intravenously via cannula. The survival rate was determined for an hour experimental period.

[3] = test system: anesthetized rats infused with hypotonic solution; assay: Antidiuretic effect on diuresis induced by hypotonic solution in anesthetized rats; format: in vivo, rat; conditions: 10 μg/kg intravenously
Experimental: The Study of Antidiuretic Effect-the Confirmation Study of Antidiuretic Effect on the Diuretic Activity Induced by Loading Hypotonic Solution in the Anesthetized Rats Infused with Hypotonic Solution
It has been reported that plasma AVP level was decreased with intravenous infusion of hypotonic solution (J. Endocrinol., Vol. 141, pp. 59-67, 1994). The antidiuretic effect of the test compounds in the rats induced a diuretic condition was determined by the method as reported by Angchanpen et al (Br. J. Pharmacol., Vol. 93, pp. 151-155, 1988). The test compounds were dissolved in dimethylsulfoxide at 10 mM, and used in the study. Male SD rats (200-400 g weight) were anesthetized with 100 mg/kg of Inactin (SIGMA) intraperitonealy and each cannula was inserted into trachea, jugular vein, bladder and femoral vein, respectively. […] The urine volume obtained via cannula inserted into bladder was measured every 10 minutes. […]
The average of urine volume measured for three 10 minutes periods before the administration was defined as the pre value (0%). After the administration of the test compounds, the urine volume was measured every 10 minutes. The antidiuretic effect, namely the decrease of the urine volume, induced by administration of test compounds was calculated from the decreasing rate of urine volume (minus %) against the pre value. […]

[4] = target: T2, cytochrome P-450 (CYP3A4) (Homo sapiens, UniProt P08684); assay: Inhibitory effect on cytochrome P-450 (CYP3A4) from human liver microsome; format: in vitro ADME; conditions: test compound 10 μM, testosterone 50 μM substrate, 5 minutes at 37° C., rate of substrate metabolism versus control
T2 construct: human liver microsome (1.0 mg/mL) as enzyme; from tissue; host or cells: human liver microsomes
Experimental: The Experiment for Inhibitory Effect on Cytochrome P-450 (CYP3A4) Originated from Human Liver Microsome
The test compounds dissolved in dimethylsulfoxide at 10 mM were added to 0.1 M phosphate buffer (pH7.4) containing 10 mM MgCl2, and human liver microsome (1.0 mg/mL) as enzyme and testosterone (50 μM) as a substrate for CYP3A4 were added to this 0.1M phosphate buffer in order to prepare phosphate buffer solution of the test compounds at final concentration of 10 μM (final volume 0.2 mL). The reaction was started by the addition of NADPH (1.0 mg/mL) and then incubated for 5 minutes at 37° C. After acetonitrile was added to stop the reaction, the residual concentration of testosterone was determined using LC/MS/MS, and calculated the rate of metabolism of substrate from the ratio of content of testosterone at end to that at start (A value). As the same way, the experiment except for the test compounds was carried out and remaining testosterone was determined in the same way as mentioned above. The rate of metabolism of substrate was calculated from the ratio of content of testosterone at end to that at start of the reaction (B value) as control value. The ratio of A value against B value was determined as a degree of incidence of test compounds on metabolic rate, which was shown in Table 70.

T1 sequence (P30518 whole entry): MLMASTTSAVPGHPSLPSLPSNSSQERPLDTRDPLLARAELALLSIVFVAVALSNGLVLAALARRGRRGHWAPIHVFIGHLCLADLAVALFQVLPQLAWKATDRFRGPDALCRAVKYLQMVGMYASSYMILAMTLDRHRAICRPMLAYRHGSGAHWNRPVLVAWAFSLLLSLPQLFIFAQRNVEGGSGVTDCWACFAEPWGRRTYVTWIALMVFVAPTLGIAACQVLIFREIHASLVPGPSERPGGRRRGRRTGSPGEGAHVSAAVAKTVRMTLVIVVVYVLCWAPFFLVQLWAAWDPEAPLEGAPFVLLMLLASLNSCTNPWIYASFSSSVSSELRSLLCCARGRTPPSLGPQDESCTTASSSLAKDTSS
T2 sequence (P08684 whole entry): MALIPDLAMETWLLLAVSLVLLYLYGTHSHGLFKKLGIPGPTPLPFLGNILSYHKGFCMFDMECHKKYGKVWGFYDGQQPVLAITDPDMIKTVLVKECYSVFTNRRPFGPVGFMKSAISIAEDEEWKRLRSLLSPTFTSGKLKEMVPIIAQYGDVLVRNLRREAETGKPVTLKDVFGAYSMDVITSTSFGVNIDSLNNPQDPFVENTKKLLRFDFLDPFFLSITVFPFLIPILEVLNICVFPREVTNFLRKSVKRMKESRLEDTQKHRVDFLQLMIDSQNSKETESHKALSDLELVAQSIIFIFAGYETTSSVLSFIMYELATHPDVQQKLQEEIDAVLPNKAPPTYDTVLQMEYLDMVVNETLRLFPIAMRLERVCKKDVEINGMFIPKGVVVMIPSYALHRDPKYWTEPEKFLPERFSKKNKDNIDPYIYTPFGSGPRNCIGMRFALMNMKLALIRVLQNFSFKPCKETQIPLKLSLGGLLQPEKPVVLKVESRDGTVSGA

Structure (SMILES) | EC50 (human V2 receptor [1]) | IA (intrinsic activity) (human V2 receptor [1]) | Ki (human V2 receptor [2]) | Dead (Male SD rats) | Antidiuretic effect (decreasing rate of urine volume) ([3]; anesthetized male SD rats, against pre value) | Duration time ([3]; period until decreasing rate of urine volume restored to −20%) | (A value/B value) × 100 [4]
Cc1nnc(CN2Cc3ccccc3N(C(=O)c3ccc(OCCCO)nc3C)CC2=O)o1 [Example 31-8, 1-[6-(3-hydroxypropoxy)-2-methylpyridine-3-carbonyl]-4-(5-methyl-1,3,4-oxadiazol-2-ylmethyl)-1,2,4,5-tetrahydrobenzo[e]-1,4-diazepin-3-one] | 44 nM | 1.18 | – | – | – | – | –
Cc1nnc(CN2Cc3ccccc3N(C(=O)c3ccc(-n4cccn4)nc3)CC2=O)o1 [Example 1-29, 4-(5-methyl-1,3,4-oxadiazol-2-yl-methyl)-1-[6-(pyrazol-1-yl)py-ridine-3-carbonyl]-1,2,4,5-tetra-hydrobenzo[e]-1,4-di-azepin-3-one] | 50 nM | 0.93 | – | – | – | – | –
Cc1cnc(CN2Cc3ccccc3N(C(=O)c3ccc(OCCO)cc3Cl)CC2=O)o1 [Example 2-21, 1-[2-chloro-4-(2-hydroxyethoxy)benzoyl]-4-(5-methyloxazole-2-ylmethyl)-1,2,4,5-tetrahydrobenzo[e]-1,4-diazepin-3-one] | 6 nM | 1.09 | 322 nM | – | – | – | –
O=C1CN(C(=O)c2ccc(N3CCCC3)cc2Cl)c2ccccc2CN1Cc1nnn[nH]1 [Example 15, 1-(2-Chloro-4-pyrrolidin-1-ylbenzoyl)-4-(1H-tetrazol-5-ylmethyl)-1,2,4,5-tetrahydrobenzo[e]-1,4-diazepin-3-one] | 1 nM | 1.09 | 97.7 nM | – | – | – | –
O=C(O)CN1Cc2ccccc2N(C(=O)c2ccc(-c3ccccc3)cc2)CC1=O [Example 31-11, 1-(biphenyl-4-carbonyl)-3-oxo-1,2,3,5-tetrahydrobenzo[e]-1,4-diazepin-4-ylacetic acid] | 39 nM | 0.35 | 103 nM | – | – | – | –
O=C(O)CN1Cc2ccccc2N(C(=O)c2ccc(OCC(F)(F)F)cc2Cl)CC1=O [Example 2-5, 1-[2-chloro-4-(2,2,2-trifluoroethoxy)-benzoyl]-3-oxo-1,2,3,5-tetrahydrobenzo[e]-1,4-diazepin-4-yl acetic acid] | 10 nM | – | 197 nM | – | – | – | –
CCOC(=O)CN1Cc2ccccc2N(C(=O)c2ccc(N3CCCC3)cc2Cl)CC1=O [Example 1-7, ethyl [1-(2-chloro-4-pyrro-lidin-1-ylbenzoyl)-3-ox-o-1,2,3,5-tetra-hydrobenzo[e]-1,4-di-azepin-4-yl]acetate] | 4 nM | 0.92 | 86.6 nM | 0/3 | −68.6% ^ | 30 min | 89.9
